From ChEMBL document CHEMBL1201862, “PubChem BioAssay data set” (2004)
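Results reflect a 48-hour exposure of cells in 96-well plates to compound at five concentrations. GI50 = concentration required for 50% inhibition of growth.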 Activity calls are given as the source filed them. No stated cut-off is given here; in the data, active = GI50 up to about 1.1 µM and inactive = higher.

Key:
Test in all cases: NCI anticancer screen, dose series, 48 h
CAKI-1 = system: CAKI-1
SNB-19 = system: SNB-19
COLO 205 = system: COLO 205
T47D = system: T47D
HCC 2998 = system: HCC 2998
NCI-H460 = system: NCI-H460
SK-MEL-28 = system: SK-MEL-28
OVCAR-5 = system: OVCAR-5
SF-539 = system: SF-539
BT-549 = system: BT-549
HCT-116 = system: HCT-116
UO-31 = system: UO-31
IGROV-1 = system: IGROV-1
HCT-15 = system: HCT-15
LOX IMVI = system: LOX IMVI
MCF7 = system: MCF7
RXF 393 = system: RXF 393
M14 = system: M14
786-0 = system: 786-0
SN12C = system: SN12C
SF-295 = system: SF-295
Hs-578T = system: Hs-578T
SK-OV-3 = system: SK-OV-3
OVCAR-3 = system: OVCAR-3
ACHN = system: ACHN
CCRF-CEM = system: CCRF-CEM
MDA-MB-435 = system: MDA-MB-435
SW-620 = system: SW-620
NCI-H23 = system: NCI-H23
UACC-62 = system: UACC-62
UACC-257 = system: UACC-257
PC-3 = system: PC-3
SK-MEL-2 = system: SK-MEL-2
A498 = system: A498
NCI/ADR-RES = system: NCI/ADR-RES
DU-145 = system: DU-145
TK-10 = system: TK-10
HT-29 = system: HT-29
U-251 = system: U-251
K562 = system: K562
SF-268 = system: SF-268
OVCAR-8 = system: OVCAR-8
SK-MEL-5 = system: SK-MEL-5
HOP-92 = system: HOP-92
MDA-MB-231 = system: MDA-MB-231
EKVX = system: EKVX
A549 = system: A549
OVCAR-4 = system: OVCAR-4
KM12 = system: KM12
NCI-H522 = system: NCI-H522
MOLT-4 = system: MOLT-4
HOP-62 = system: HOP-62
RPMI-8226 = system: RPMI-8226
HL-60 = system: HL-60
NCI-H226 = system: NCI-H226
SNB-75 = system: SNB-75
Malme-3M = system: Malme-3M
MDA-N = system: MDA-N

Measured: GI50

CNC(=O)c1nn[nH]c1Sc1c([N+](=O)[O-])ncn1C
inactive: CAKI-1 > 100 µM | SNB-19 > 100 µM | COLO 205 > 100 µM | T47D > 100 µM | HCC 2998 > 100 µM | NCI-H460 > 100 µM | SK-MEL-28 > 100 µM | OVCAR-5 > 100 µM | SF-539 > 100 µM | BT-549 > 100 µM | HCT-116 > 100 µM | UO-31 > 100 µM | IGROV-1 > 100 µM | LOX IMVI > 100 µM | MCF7 > 100 µM | RXF 393 > 100 µM | M14 > 100 µM | 786-0 > 100 µM | SN12C > 100 µM | SF-295 > 100 µM | Hs-578T > 100 µM | SK-OV-3 > 100 µM | OVCAR-3 > 100 µM | ACHN > 100 µM | CCRF-CEM > 100 µM | MDA-MB-435 > 100 µM | SW-620 > 100 µM | NCI-H23 > 100 µM | UACC-62 > 100 µM | UACC-257 > 100 µM | PC-3 > 100 µM | SK-MEL-2 > 100 µM | A498 > 100 µM | NCI/ADR-RES > 100 µM | DU-145 > 100 µM | TK-10 > 100 µM | HT-29 > 100 µM | U-251 > 100 µM | K562 > 100 µM | SF-268 > 100 µM | OVCAR-8 > 100 µM | SK-MEL-5 > 100 µM | HOP-92 > 100 µM | MDA-MB-231 > 100 µM | EKVX > 100 µM | A549 > 100 µM | OVCAR-4 > 100 µM | KM12 > 100 µM | NCI-H522 > 100 µM | MOLT-4 > 100 µM | HOP-62 > 100 µM
> 100 µM: HCT-15

COc1cc2c(cc1OC)C(c1ccccc1CCCCl)=NCC2
inactive: CAKI-1 > 100 µM | SNB-19 > 100 µM | COLO 205 40 µM | T47D 42.8 µM | RPMI-8226 14.3 µM | HCC 2998 46.9 µM | NCI-H460 48.6 µM | SK-MEL-28 19.1 µM | OVCAR-5 > 100 µM | SF-539 > 100 µM | BT-549 38.3 µM | HL-60 28.8 µM | HCT-116 45.9 µM | UO-31 85.9 µM | IGROV-1 33.9 µM | MCF7 95.5 µM | RXF 393 > 100 µM | M14 > 100 µM | 786-0 > 100 µM | SN12C 93.1 µM | SF-295 68.7 µM | Hs-578T 69 µM | SK-OV-3 > 100 µM | OVCAR-3 > 100 µM | ACHN > 100 µM | CCRF-CEM > 100 µM | MDA-MB-435 10.8 µM | SW-620 25.6 µM | NCI-H23 42.5 µM | UACC-62 40.9 µM | UACC-257 53.1 µM | PC-3 49.9 µM | SK-MEL-2 > 100 µM | A498 > 100 µM | NCI/ADR-RES > 100 µM | DU-145 > 100 µM | NCI-H226 80.4 µM | TK-10 > 100 µM | HT-29 44.2 µM | U-251 8.07 µM | K562 35.8 µM | SF-268 58.2 µM | SNB-75 75.3 µM | OVCAR-8 97.5 µM | SK-MEL-5 23.3 µM | HOP-92 39.1 µM | MDA-MB-231 > 100 µM | EKVX 90.2 µM | A549 > 100 µM | OVCAR-4 91.4 µM | KM12 55.6 µM | NCI-H522 20.8 µM | MOLT-4 80.4 µM | HOP-62 > 100 µM
> 100 µM: HCT-15

O=C1c2ccccc2-c2c1c(-c1ccccc1)c1n2C2(C(=O)c3ccccc3C2=O)C2C(=O)N(c3ccccc3)C(=O)C12 (stereo not given)
16.4 µM: HCT-15
inactive: CAKI-1 34.4 µM | SNB-19 27.7 µM | COLO 205 18.5 µM | T47D 16.9 µM | NCI-H460 12 µM | SK-MEL-28 28.9 µM | OVCAR-5 17.4 µM | SF-539 15.4 µM | BT-549 17.5 µM | Malme-3M 23.9 µM | HCT-116 17.9 µM | UO-31 28.4 µM | IGROV-1 32.3 µM | LOX IMVI 17 µM | MCF7 24.8 µM | RXF 393 17.6 µM | M14 34.1 µM | 786-0 23.4 µM | SN12C 19.9 µM | SF-295 34.4 µM | Hs-578T 17.8 µM | SK-OV-3 41.9 µM | OVCAR-3 24.3 µM | ACHN 31.9 µM | CCRF-CEM 26.1 µM | MDA-N 24.7 µM | MDA-MB-435 19.8 µM | SW-620 31.5 µM | NCI-H23 17.4 µM | UACC-62 21.6 µM | UACC-257 30.6 µM | PC-3 26.6 µM | SK-MEL-2 22.6 µM | A498 28.1 µM | NCI/ADR-RES 74.6 µM | DU-145 28.5 µM | NCI-H226 19.3 µM | TK-10 28.1 µM | HT-29 17.7 µM | U-251 35.9 µM | SF-268 21.1 µM | SNB-75 17.3 µM | OVCAR-8 32.2 µM | SK-MEL-5 18.2 µM | HOP-92 23.8 µM | EKVX 24 µM | A549 85.1 µM | OVCAR-4 31.4 µM | KM12 19.8 µM | NCI-H522 12.9 µM | MOLT-4 40.6 µM | HOP-62 26.3 µM
